Laboratory results taken from ChEMBL document CHEMBL4619820, “Development of Novel AKR1C3 Inhibitors as New Potential Treatment for Castration-Resistant Prostate Cancer” (J Med Chem, 2020).
Substitutions are numbered along the chain they refer to. Calls of active or inactive are those of the source. The calls are words filed in the database; no cut-off is given here.

What was measured:
[1] = target: T1, Carbonyl reductase [NADPH] 1 (Homo sapiens, UniProt P16152); assay: Inhibition of CBR1 (unknown origin)
T1 sequence (P16152 whole entry): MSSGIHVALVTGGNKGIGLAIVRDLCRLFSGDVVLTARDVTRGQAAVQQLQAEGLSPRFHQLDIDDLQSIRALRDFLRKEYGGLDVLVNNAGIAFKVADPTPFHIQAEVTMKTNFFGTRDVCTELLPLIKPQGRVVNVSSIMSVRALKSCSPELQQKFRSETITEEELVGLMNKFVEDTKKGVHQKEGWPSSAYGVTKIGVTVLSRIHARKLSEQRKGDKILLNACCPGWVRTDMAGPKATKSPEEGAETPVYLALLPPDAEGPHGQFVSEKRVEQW

[2] = target: T2, Aldo-keto reductase family 1 member C3 (Homo sapiens, UniProt P42330); assay: Inhibition of recombinant AKR1C3 (unknown origin) assessed as reduction in S-tetralol-induced dehydrogenase activity by measuring NADPH level
T2 sequence (P42330 whole entry): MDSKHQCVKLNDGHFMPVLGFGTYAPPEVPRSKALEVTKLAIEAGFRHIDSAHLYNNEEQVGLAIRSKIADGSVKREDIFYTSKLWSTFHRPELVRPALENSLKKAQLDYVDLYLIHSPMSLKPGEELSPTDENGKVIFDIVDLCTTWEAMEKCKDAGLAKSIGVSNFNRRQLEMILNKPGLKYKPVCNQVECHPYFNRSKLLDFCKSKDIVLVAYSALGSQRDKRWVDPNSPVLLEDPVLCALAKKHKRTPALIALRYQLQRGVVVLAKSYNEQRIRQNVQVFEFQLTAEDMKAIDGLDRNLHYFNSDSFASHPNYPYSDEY

[3] = target: T3, Aldo-keto reductase family 1 member C1 (Homo sapiens, UniProt Q04828); assay: Inhibition of recombinant AKR1C1 (unknown origin) assessed as reduction in S-tetralol-induced dehydrogenase activity by measuring NADPH level
T3 sequence (Q04828 whole entry): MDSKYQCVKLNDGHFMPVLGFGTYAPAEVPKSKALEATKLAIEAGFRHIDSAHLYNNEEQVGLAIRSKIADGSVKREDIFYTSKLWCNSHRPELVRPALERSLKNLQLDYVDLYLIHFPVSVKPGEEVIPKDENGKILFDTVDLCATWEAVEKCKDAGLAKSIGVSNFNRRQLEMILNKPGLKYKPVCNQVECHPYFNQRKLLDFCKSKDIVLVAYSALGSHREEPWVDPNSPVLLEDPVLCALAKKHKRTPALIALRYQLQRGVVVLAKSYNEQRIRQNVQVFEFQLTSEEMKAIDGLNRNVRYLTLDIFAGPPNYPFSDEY

[4] = target: T4, Aldo-keto reductase family 1 member C2 (Homo sapiens, UniProt P52895); assay: Inhibition of recombinant AKR1C2 (unknown origin) assessed as reduction in S-tetralol-induced dehydrogenase activity by measuring NADPH level
T4 sequence (P52895 whole entry): T3 sequence (Q04828 whole entry) with T38V, R47H, L54V, C87S, V151M, R170H, Q172L

[5] = target: T5, Aldo-keto reductase family 1 member C4 (Homo sapiens, UniProt P17516); assay: Inhibition of recombinant AKR1C4 (unknown origin) assessed as reduction in S-tetralol-induced dehydrogenase activity by measuring NADPH level
T5 sequence (P17516 whole entry): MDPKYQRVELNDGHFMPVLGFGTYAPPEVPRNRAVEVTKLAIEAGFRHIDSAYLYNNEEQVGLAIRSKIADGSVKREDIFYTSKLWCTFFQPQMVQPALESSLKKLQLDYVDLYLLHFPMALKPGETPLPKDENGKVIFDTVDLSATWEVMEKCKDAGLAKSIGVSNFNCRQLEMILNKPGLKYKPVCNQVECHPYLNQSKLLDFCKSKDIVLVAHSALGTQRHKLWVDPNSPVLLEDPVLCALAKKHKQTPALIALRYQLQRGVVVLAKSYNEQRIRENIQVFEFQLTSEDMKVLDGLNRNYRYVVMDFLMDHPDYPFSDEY

[6] = species on record: Homo sapiens; assay: Ratio of IC50 for inhibition of recombinant AKR1C1 (unknown origin) inhibition of recombinant AKR1C3 (unknown origin)
[7] = species on record: Homo sapiens; assay: Ratio of IC50 for inhibition of recombinant AKR1C2 (unknown origin) inhibition of recombinant AKR1C3 (unknown origin)
[8] = species on record: Homo sapiens; assay: Ratio of IC50 for inhibition of recombinant AKR1C4 (unknown origin) inhibition of recombinant AKR1C3 (unknown origin)
[9] = species on record: Homo sapiens; assay: Ratio of IC50 for inhibition of CBR1 (unknown origin) inhibition of recombinant AKR1C3 (unknown origin)
[10] = target: T6, Androgen receptor (Homo sapiens) (UniProt P10275); assay: Agonistic activity at AR in human 22Rv1 cells assessed as effect on cell number at 1 nM by CCK8 assay; format: cell-based; conditions: CWR22R
T6 sequence (whole entry): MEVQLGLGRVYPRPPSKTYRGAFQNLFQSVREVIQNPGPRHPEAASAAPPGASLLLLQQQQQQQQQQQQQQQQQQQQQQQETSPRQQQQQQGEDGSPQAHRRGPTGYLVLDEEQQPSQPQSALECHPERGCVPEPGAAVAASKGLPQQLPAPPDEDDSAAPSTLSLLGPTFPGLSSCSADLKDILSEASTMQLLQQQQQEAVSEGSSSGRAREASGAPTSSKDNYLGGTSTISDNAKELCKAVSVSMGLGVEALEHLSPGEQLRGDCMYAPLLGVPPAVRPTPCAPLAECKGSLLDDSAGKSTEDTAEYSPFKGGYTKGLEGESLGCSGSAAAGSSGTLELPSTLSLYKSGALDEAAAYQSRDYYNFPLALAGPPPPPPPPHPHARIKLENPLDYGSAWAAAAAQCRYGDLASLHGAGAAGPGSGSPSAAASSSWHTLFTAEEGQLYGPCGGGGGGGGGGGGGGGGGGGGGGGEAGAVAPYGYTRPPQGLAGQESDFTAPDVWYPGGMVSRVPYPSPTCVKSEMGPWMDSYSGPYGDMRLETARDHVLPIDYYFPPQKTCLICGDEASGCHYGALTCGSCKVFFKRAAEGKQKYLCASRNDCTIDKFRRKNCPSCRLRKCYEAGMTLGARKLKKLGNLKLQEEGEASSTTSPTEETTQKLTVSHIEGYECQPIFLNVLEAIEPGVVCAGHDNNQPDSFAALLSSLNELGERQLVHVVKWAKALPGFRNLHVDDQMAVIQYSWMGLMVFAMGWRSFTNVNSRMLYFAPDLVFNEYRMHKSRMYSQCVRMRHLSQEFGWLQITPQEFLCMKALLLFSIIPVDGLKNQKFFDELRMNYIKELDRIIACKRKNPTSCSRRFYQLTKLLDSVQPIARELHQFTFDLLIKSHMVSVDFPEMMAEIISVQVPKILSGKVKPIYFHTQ

Row | SMILES | IC50 [1] [nM] | IC50 [2] [nM] | IC50 [3] [nM] | IC50 [4] [nM] | IC50 [5] [nM] | Ratio IC50 [6] | Ratio IC50 [7] | Ratio IC50 [8] | Ratio IC50 [9] | Activity [10]
1 | Cc1ccc(NC(=O)c2cc3cccc(O)c3oc2=N)cc1 | 270 | 27 | > 10000 | > 10000 | > 10000 | > 370 | > 370 | > 370 | 10 | inactive
2 | CCc1cccc(NC(=O)c2cc3cccc(O)c3oc2=N)c1 | 250 | 34 | > 10000 | > 10000 | > 10000 | > 300 | > 300 | > 300 | 7 | inactive
3 | N=c1oc2c(O)cccc2cc1C(=O)Nc1ccc(F)cc1 | 440 | 25 | 6000 | > 10000 | > 10000 | 240 | > 400 | > 400 | 18 | inactive
